{"source": "paper PMC2365111", "about": "“Cytotoxicity of Poly(Phenolic)Sulfonates and Their Sodium Salts in L1210 Lymphoid Leukemia Cells” (Metal-Based Drugs, 1998)", "key": {"IMP dehydrogenase": {"test_system": "IMP dehydrogenase", "assay": "IMP dehydrogenase activity, L1210", "format": "biochemical, mouse", "conditions": "60 min, N=6", "excerpt": "CYTOTOXlCITY OF POLY(PHENOLIC)SULFONATES AND THEIR SODIUM SALTS IN L1210 LYMPHOID LEUKEMIA CELLS Fei Wang, Amy E. Warren, Cheryl R. Barnes and Iris H. Hall* Division of Medicinal Chemistry and Natural Products University of North Carolina Chapel Hill, N.C. […] Because ofthese properties it was surmised that these poly(phenolic)sulfonated compounds may have antineoplastic activity. METHODS Source of Compounds Test compounds were supplied by GeneLabs, Inc. [Redwood City, CA [Table 1]. Radioisotopes were obtained from New England Nuclear [Dupont, Boston, MA]. Substrates and co-factors were purchased om Sigma Chemical Co., [St Louis, MO]. Pentosan sulfate and other antineoplastic standards were obtained from Sigma Chemical Co. Tumor lines were obtained from American Type Culture Collection [Rockville, MD]. 147 Vol. 5, No. 3, 1998 Cytotoxicity ofSodium Poly(Phenolic)Sulfonates in L1210 Lymphoid Leukemia Cells Table 1 Structures of Poly(phenolic)sulfonate Compounds O2R\" n Compound R' R\" n MW # G1-2041 H OH 8 1489.46 G1-2029 H OH 6 1117.09 G1-2030 H OH 4 744.73 GI-2021 CH3 ONa 8 1777.5 G1-2057 CH3 ONa 4 888.75 GI-2158 CH3 ONa 6 1333.13 GI-2063 OCH3 ONa 8 2001.65 G1-2042 OAc ONa 8 2017.73 Cytotoxicity Poly(phenolic)sulfonates were tested for cytotoxic activity by homogenizing drug in 0.05% Tween 80/H20 to give a mg/ml stock concentration. These solutions were sterilized by passing them through an acrodisc ([…]). The following cell lines were maintained by literature techniques: murine L1210 lymphoid leukemia, P-388 lymphocytic leukemia, rat UMR 106 osteosarcoma, human Tmolt3 acute lymphoblastic T cell leukemia, HUT-8 lymphoma, HeLa-S suspended cervical carcinoma, HeLa solid cervical carcinoma, KB epidermoid nasopharynx, A431 epidermoid carcinoma, colorectal adenocarcinoma SW480, HCT-8 ileocecal adenocarcinoma, lung bronchogenic MB-9812, A549 lung carcinoma, and glioma HS683. Geran et al.'s protocol was used to assess the cytotoxicity of the compounds and standards in each cell line. Cell numbers were determined by the trypan blue exclusion technique. Solid tumor cytotoxicity was determined by Leibovitz et al. 's method utilizing crystal violeeOH and read at 562 nm (Molecular Devices). Values for cytotoxicity were expressed as EDs0 g/ml, i.e. the concentration ofthe compound inhibiting 50% ofcell growth. A value of less than 4 µg/ml was required for significant activity ofgrowth inhibition. Incorporation Studies Incorporation of labeled precursors into 3H-DNA, 3H -RNA and 3H -protein for 10 L1210 cells was obtained. The concentration response for inhibition of DNA, RNA and protein synthesis of the compounds at 25, 50 and 100 l.tM was determined for 60 min incubations. Incorporation of 14C -glycine (53.0 mCi/mmol) into purines was obtained by the method of Cadman et al.[12]. Incorporation of 4C- formate (53.0 mCi/mmol) into pyrimidines was determined by the method of Christopherson et al.[13]. […] DNA polymerase Ot activity was determined in cytoplasmic extracts isolated by Eichler et aL's method. […] Messenger-, ribosomal- and transfer-RNA polymerase enzymes were isolated with different concentrations of ammonium sulfate; individual RNA polymerase activities were determined using 3H -UTP 16,17]. Ribonucleoside reductase activity was measured using 4C -CDP with dithioerythritol. […]"}, "Thymidylate synthetase": {"target": "T1, Thymidylate synthetase (Mus musculus, UniProt P07607)", "T1 construct": "preparing the appropriate L1210 cell homogenates or subcellular fractions; endogenous in cells; host or cells: L1210 murine lymphoid leukemia cells, homogenate or subcellular fraction", "T1 sequence (P07607 whole entry)": "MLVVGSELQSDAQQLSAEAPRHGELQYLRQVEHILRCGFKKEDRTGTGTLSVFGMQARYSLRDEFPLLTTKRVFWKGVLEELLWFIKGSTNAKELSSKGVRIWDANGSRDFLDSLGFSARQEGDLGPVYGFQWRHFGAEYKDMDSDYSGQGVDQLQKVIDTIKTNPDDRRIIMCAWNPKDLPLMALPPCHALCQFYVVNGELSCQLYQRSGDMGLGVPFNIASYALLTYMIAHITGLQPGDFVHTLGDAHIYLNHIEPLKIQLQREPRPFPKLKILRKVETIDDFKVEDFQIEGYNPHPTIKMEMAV", "assay": "Thymidylate synthetase activity, L1210", "format": "biochemical", "conditions": "60 min, N=6", "excerpt": "(§1) CYTOTOXlCITY OF POLY(PHENOLIC)SULFONATES AND THEIR SODIUM SALTS IN L1210 LYMPHOID LEUKEMIA CELLS Fei Wang, Amy E. Warren, Cheryl R. Barnes and Iris H. Hall* Division of Medicinal Chemistry and Natural Products University of North Carolina Chapel Hill, N.C. […] Because ofthese properties it was surmised that these poly(phenolic)sulfonated compounds may have antineoplastic activity. METHODS Source of Compounds Test compounds were supplied by GeneLabs, Inc. [Redwood City, CA [Table 1]. Radioisotopes were obtained from New England Nuclear [Dupont, Boston, MA]. Substrates and co-factors were purchased om Sigma Chemical Co., [St Louis, MO]. Pentosan sulfate and other antineoplastic standards were obtained from Sigma Chemical Co. Tumor lines were obtained from American Type Culture Collection [Rockville, MD]. 147 Vol. 5, No. 3, 1998 Cytotoxicity ofSodium Poly(Phenolic)Sulfonates in L1210 Lymphoid Leukemia Cells Table 1 Structures of Poly(phenolic)sulfonate Compounds O2R\" n Compound R' R\" n MW # G1-2041 H OH 8 1489.46 G1-2029 H OH 6 1117.09 G1-2030 H OH 4 744.73 GI-2021 CH3 ONa 8 1777.5 G1-2057 CH3 ONa 4 888.75 GI-2158 CH3 ONa 6 1333.13 GI-2063 OCH3 ONa 8 2001.65 G1-2042 OAc ONa 8 2017.73 Cytotoxicity Poly(phenolic)sulfonates were tested for cytotoxic activity by homogenizing drug in 0.05% Tween 80/H20 to give a mg/ml stock concentration. These solutions were sterilized by passing them through an acrodisc ([…]). The following cell lines were maintained by literature techniques: murine L1210 lymphoid leukemia, P-388 lymphocytic leukemia, rat UMR 106 osteosarcoma, human Tmolt3 acute lymphoblastic T cell leukemia, HUT-8 lymphoma, HeLa-S suspended cervical carcinoma, HeLa solid cervical carcinoma, KB epidermoid nasopharynx, A431 epidermoid carcinoma, colorectal adenocarcinoma SW480, HCT-8 ileocecal adenocarcinoma, lung bronchogenic MB-9812, A549 lung carcinoma, and glioma HS683. Geran et al.'s protocol was used to assess the cytotoxicity of the compounds and standards in each cell line. Cell numbers were determined by the trypan blue exclusion technique. Solid tumor cytotoxicity was determined by Leibovitz et al. 's method utilizing crystal violeeOH and read at 562 nm (Molecular Devices). Values for cytotoxicity were expressed as EDs0 g/ml, i.e. the concentration ofthe compound inhibiting 50% ofcell growth. A value of less than 4 µg/ml was required for significant activity ofgrowth inhibition. Incorporation Studies Incorporation of labeled precursors into 3H-DNA, 3H -RNA and 3H -protein for 10 L1210 cells was obtained. The concentration response for inhibition of DNA, RNA and protein synthesis of the compounds at 25, 50 and 100 l.tM was determined for 60 min incubations. Incorporation of 14C -glycine (53.0 mCi/mmol) into purines was obtained by the method of Cadman et al.[12]. Incorporation of 4C- formate (53.0 mCi/mmol) into pyrimidines was determined by the method of Christopherson et al.[13]. Enzyme Assays Inhibition of various enzyme activities was performed by first preparing the appropriate L1210 cell homogenates or subcellular fractions, then adding the drug to be tested during the enzyme assay. For the concentration response studies, inhibition of enzyme activity was determined at 25, 50 and 100 l.tM of compounds G1-2021, G1-2029, GI-2041 and G1-2063 after 60 min incubations. DNA polymerase Ot activity was determined in cytoplasmic extracts isolated by Eichler et aL's method. The DNA polymerase assay was described by Sedwick et al.[15] using 3H-TTP. Messenger-, ribosomal- and transfer-RNA polymerase enzymes were isolated with different concentrations of ammonium sulfate; individual RNA polymerase activities were determined using 3H -UTP 16,17]. Ribonucleoside reductase activity was measured using 4C -CDP with dithioerythritol. The deoxyribonucleotides 4C -dCDP were separated from the ribonucleotides by TLC on PEI plates. […]"}, "[1]": {"test_system": "murine L1210 lymphoid leukemia", "format": "cell-based, mouse", "excerpt": "as §1"}, "[2]": {"target": "T2, Carbamyl phosphate synthetase (Mus musculus, UniProt B2RQC6)", "T2 construct": "preparing the appropriate L1210 cell homogenates or subcellular fractions; endogenous in cells; host or cells: L1210 murine lymphoid leukemia cells, homogenate or subcellular fraction", "T2 sequence (B2RQC6 whole entry)": "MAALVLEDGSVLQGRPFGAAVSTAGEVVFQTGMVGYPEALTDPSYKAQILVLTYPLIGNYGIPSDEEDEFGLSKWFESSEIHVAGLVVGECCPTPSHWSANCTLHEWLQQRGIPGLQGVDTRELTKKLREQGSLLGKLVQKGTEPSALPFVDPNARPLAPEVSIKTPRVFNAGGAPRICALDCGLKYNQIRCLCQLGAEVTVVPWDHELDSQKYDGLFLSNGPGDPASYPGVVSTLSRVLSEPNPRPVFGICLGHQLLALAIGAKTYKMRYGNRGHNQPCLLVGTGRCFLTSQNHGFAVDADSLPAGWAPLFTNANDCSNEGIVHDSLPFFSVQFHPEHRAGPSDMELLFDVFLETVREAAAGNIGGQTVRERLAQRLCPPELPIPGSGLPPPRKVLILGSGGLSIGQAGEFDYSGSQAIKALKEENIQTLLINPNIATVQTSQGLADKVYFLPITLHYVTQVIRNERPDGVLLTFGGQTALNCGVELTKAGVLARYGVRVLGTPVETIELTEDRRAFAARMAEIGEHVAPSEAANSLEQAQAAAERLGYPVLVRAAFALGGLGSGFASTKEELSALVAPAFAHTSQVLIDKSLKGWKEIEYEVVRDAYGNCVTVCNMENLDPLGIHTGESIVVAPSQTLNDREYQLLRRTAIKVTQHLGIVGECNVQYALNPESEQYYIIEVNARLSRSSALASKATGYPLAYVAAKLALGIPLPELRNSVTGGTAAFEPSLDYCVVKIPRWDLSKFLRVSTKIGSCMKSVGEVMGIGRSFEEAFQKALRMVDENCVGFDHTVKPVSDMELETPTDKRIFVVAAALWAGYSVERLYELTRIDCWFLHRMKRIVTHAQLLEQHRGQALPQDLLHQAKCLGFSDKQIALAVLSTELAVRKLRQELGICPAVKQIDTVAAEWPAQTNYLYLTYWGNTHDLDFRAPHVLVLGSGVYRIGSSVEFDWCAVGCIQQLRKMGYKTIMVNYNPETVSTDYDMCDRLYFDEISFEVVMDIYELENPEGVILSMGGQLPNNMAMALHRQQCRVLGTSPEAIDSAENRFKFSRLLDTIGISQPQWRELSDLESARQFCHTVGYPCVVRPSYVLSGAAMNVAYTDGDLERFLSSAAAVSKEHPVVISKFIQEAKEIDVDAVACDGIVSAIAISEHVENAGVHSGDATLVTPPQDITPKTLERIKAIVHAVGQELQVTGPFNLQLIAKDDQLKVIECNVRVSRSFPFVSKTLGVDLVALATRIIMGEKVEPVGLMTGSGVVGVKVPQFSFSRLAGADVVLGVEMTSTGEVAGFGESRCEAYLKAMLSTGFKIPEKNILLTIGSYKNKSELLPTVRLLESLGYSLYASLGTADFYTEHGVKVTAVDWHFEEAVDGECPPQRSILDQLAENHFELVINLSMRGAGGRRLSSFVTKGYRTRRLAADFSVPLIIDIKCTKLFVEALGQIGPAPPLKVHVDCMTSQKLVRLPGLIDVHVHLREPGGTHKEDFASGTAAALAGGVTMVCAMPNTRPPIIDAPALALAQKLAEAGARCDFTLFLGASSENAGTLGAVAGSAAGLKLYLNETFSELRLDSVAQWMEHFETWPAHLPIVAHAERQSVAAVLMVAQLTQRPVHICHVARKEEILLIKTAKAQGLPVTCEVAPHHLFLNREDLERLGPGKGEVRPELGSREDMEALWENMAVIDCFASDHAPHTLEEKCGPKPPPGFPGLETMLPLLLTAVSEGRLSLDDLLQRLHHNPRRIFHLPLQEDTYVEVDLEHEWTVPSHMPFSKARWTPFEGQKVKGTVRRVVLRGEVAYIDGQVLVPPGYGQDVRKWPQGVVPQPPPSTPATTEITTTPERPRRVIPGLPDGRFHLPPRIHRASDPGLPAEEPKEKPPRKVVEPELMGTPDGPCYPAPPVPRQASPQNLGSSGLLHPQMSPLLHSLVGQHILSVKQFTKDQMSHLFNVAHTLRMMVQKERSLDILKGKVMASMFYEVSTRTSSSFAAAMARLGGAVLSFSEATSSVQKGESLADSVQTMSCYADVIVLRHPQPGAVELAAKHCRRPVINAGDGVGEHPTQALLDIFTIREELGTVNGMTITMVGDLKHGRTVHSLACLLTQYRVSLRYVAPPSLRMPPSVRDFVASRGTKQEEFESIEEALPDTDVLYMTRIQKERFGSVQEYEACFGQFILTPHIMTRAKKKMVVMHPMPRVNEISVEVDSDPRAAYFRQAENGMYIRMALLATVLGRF", "assay": "Carbamyl phosphate synthetase activity, L1210", "format": "biochemical", "conditions": "60 min, N=6", "excerpt": "as §1"}, "mRNA polymerase": {"target": "T3, mRNA polymerase (Mus musculus, UniProt P08775)", "T3 construct": "Messenger-, ribosomal- and transfer-RNA polymerase enzymes were isolated with different concentrations of ammonium sulfate; endogenous in cells; host or cells: L1210 murine lymphoid leukemia cells, ammonium sulfate fraction", "assay": "Messenger-RNA polymerase activity, L1210", "format": "biochemical", "conditions": "100 μM, 60 min, N=6", "excerpt": "CYTOTOXlCITY OF POLY(PHENOLIC)SULFONATES AND THEIR SODIUM SALTS IN L1210 LYMPHOID LEUKEMIA CELLS Fei Wang, Amy E. Warren, Cheryl R. Barnes and Iris H. Hall* Division of Medicinal Chemistry and Natural Products University of North Carolina Chapel Hill, N.C. […] Because ofthese properties it was surmised that these poly(phenolic)sulfonated compounds may have antineoplastic activity. METHODS Source of Compounds Test compounds were supplied by GeneLabs, Inc. [Redwood City, CA [Table 1]. Radioisotopes were obtained from New England Nuclear [Dupont, Boston, MA]. Substrates and co-factors were purchased om Sigma Chemical Co., [St Louis, MO]. Pentosan sulfate and other antineoplastic standards were obtained from Sigma Chemical Co. Tumor lines were obtained from American Type Culture Collection [Rockville, MD]. […] Cell numbers were determined by the trypan blue exclusion technique. Solid tumor cytotoxicity was determined by Leibovitz et al. 's method utilizing crystal violeeOH and read at 562 nm (Molecular Devices). Values for cytotoxicity were expressed as EDs0 g/ml, i.e. the concentration ofthe compound inhibiting 50% ofcell growth. […] Incorporation of 4C- formate (53.0 mCi/mmol) into pyrimidines was determined by the method of Christopherson et al.[13]. […] DNA polymerase Ot activity was determined in cytoplasmic extracts isolated by Eichler et aL's method. […] Messenger-, ribosomal- and transfer-RNA polymerase enzymes were isolated with different concentrations of ammonium sulfate; individual RNA polymerase activities were determined using 3H -UTP 16,17]. Ribonucleoside reductase activity was measured using 4C -CDP with dithioerythritol. […]"}, "Dihydrofolate reductase": {"target": "T4, Dihydrofolate reductase (Mus musculus, UniProt P00375)", "T4 construct": "preparing the appropriate L1210 cell homogenates or subcellular fractions; endogenous in cells; host or cells: L1210 murine lymphoid leukemia cells, homogenate or subcellular fraction", "T4 sequence (P00375 1-187)": "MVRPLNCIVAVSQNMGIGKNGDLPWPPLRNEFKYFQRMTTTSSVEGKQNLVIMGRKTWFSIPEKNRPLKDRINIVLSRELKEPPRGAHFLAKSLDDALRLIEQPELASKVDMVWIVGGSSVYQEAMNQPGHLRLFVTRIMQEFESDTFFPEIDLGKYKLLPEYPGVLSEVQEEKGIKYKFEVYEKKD", "assay": "Dihydrofolate reductase activity, L1210", "format": "biochemical", "conditions": "60 min, N=6", "excerpt": "as §1"}, "Thymidine kinase": {"test_system": "Thymidine kinase", "assay": "Thymidine kinase activity, L1210", "format": "biochemical, mouse", "conditions": "60 min, N=6", "excerpt": "as §1"}, "[3]": {"target": "T5, Aspartate transcarbamylase (Mus musculus, UniProt B2RQC6)", "T5 construct": "preparing the appropriate L1210 cell homogenates or subcellular fractions; endogenous in cells; host or cells: L1210 murine lymphoid leukemia cells, homogenate or subcellular fraction", "T5 sequence (B2RQC6 whole entry)": "as the sequence (B2RQC6 whole entry) above", "assay": "Aspartate transcarbamylase activity, L1210", "format": "biochemical", "conditions": "60 min, N=6", "excerpt": "as §1"}, "DNA polymerase α": {"target": "T6, DNA polymerase α (Mus musculus, UniProt P33609)", "T6 construct": "endogenous in cells; host or cells: L1210 murine lymphoid leukemia cells, cytoplasmic extract", "assay": "DNA polymerase alpha activity, L1210 cytoplasmic extracts", "format": "biochemical", "excerpt": "as §1"}}}
{"smiles": "O=S(=O)(O)c1cc2c(O)c(c1)Cc1cc(S(=O)(=O)O)cc(c1O)Cc1cc(S(=O)(=O)O)cc(c1O)Cc1cc(S(=O)(=O)O)cc(c1O)Cc1cc(S(=O)(=O)O)cc(c1O)Cc1cc(S(=O)(=O)O)cc(c1O)Cc1cc(S(=O)(=O)O)cc(c1O)Cc1cc(S(=O)(=O)O)cc(c1O)C2", "note": "[GI-2041]", "values": [{"measurement": "IMP dehydrogenase", "setting": "IMP dehydrogenase; 25 μM", "value": "131+6% of Control"}, {"measurement": "IMP dehydrogenase", "setting": "IMP dehydrogenase; 100 μM", "value": "70+4% of Control"}, {"measurement": "Thymidylate synthetase", "setting": "Thymidylate synthetase; 25 μM", "value": "105+5% of Control"}, {"measurement": "Thymidylate synthetase", "setting": "Thymidylate synthetase; 50 μM", "value": "103+6% of Control"}, {"measurement": "Thymidylate synthetase", "setting": "Thymidylate synthetase; 100 μM", "value": "92+5% of Control"}, {"measurement": "cytotoxic activity, in words", "setting": "[1]", "value": "most potent activity"}, {"measurement": "ED50 converted to", "setting": "[1]; converted from μg/ml", "value": 1.263, "unit": "µM"}, {"measurement": "Carbamyl phosphate synthetase", "setting": "[2]; 25 μM", "value": "142+6% of Control"}, {"measurement": "Carbamyl phosphate synthetase", "setting": "[2]; 50 μM", "value": "82+5% of Control"}, {"measurement": "mRNA polymerase", "setting": "mRNA polymerase", "value": "47+3% of Control"}, {"measurement": "Dihydrofolate reductase", "setting": "Dihydrofolate reductase; 25 μM", "value": "105+5% of Control"}, {"measurement": "Dihydrofolate reductase", "setting": "Dihydrofolate reductase; 100 μM", "value": "92+5% of Control"}, {"measurement": "Thymidine kinase", "setting": "Thymidine kinase; 25 μM", "value": "116+5% of Control"}, {"measurement": "Thymidine kinase", "setting": "Thymidine kinase; 50 μM", "value": "104+5% of Control"}, {"measurement": "Aspartate transcarbamylase", "setting": "[3]; 25 μM", "value": "106+5% of Control"}, {"measurement": "Aspartate transcarbamylase", "setting": "[3]; 100 μM", "value": "94+5% of Control"}, {"measurement": "DNA polymerase α", "setting": "DNA polymerase α; 25 μM, 60 min, N=6", "value": "85+5% of Control"}, {"measurement": "DNA polymerase activity time course, in words", "setting": "DNA polymerase α; 50 μM over 2 hr", "value": "returned to normal at 90 min"}]}
